Consider 4 compounds from PMC8857453 (Biotechnology Reports, 2022).

The structures appear in SMILES notation. Read-outs that look alike come from different tables or passages of the source.

Assay [1] has as its system Aps-t.
Assay [2] has as its system Aps-t. As to conditions: 50 mM MES pH 6, 100 mM NaCl, 1 mM MgCl2, 37 °C; pNPP stock in 0.1 M sodium acetate pH 4.5.

One may read the Km as the concentration of substrate that gives half-maximal velocity. In the case of `Nc1ncnc2c1ncn2[C@@H]1O[C@H](COP(=O)(O)OP(=O)(O)O)[C@@H](O)[C@H]1O` [ADP], the Km with Aps-t [1] was 190 ± 10 µM.
On the same count and under the same terms, next, `Nc1ncnc2c1ncn2[C@@H]1O[C@H](COP(=O)(O)O)[C@@H](O)[C@H]1O` [AMP]: 270 ± 20 µM; `Nc1ncnc2c1ncn2[C@@H]1O[C@H](COP(=O)(O)OP(=O)(O)OP(=O)(O)O)[C@@H](O)[C@H]1O` [ATP]: 1000 ± 120 µM.
As for `O=[N+]([O-])c1ccc(OP(=O)(O)O)cc1` [pNPP], the Km in the assay on Aps-t [2] is 94 ± 14 µM.
